Experimental data as given in publication PMC10141607, “Powerful Avidity with a Limited Valency for Virus-Attachment Blockers on DC-SIGN: Combining Chelation and Statistical Rebinding with Structural Plasticity of the Receptor” (ACS Central Science, 2023).
Several values for one entry are separate records, joined by “and”; a condition that tells them apart may be missing. Equal entries are not always repeated.

T1: DC-SIGN ECD oriented surface (Homo sapiens, UniProt Q9NNX6)
T1 construct: made in house
T1 sequence (Q9NNX6 59-404 limits assumed): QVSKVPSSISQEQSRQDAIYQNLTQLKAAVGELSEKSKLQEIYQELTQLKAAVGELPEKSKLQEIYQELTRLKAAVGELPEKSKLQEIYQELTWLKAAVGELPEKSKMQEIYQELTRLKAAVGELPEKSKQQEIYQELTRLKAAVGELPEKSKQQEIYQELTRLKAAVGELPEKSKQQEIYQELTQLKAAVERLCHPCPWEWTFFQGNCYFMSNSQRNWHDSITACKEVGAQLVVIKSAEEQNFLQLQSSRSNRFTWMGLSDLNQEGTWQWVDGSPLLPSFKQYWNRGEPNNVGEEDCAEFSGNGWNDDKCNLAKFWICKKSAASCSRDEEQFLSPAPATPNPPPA

T2: DC-SIGN ECD tetramer (Homo sapiens, UniProt Q9NNX6)
T2 sequence (Q9NNX6 59-404 limits assumed): T1 sequence (Q9NNX6 59-404 limits assumed)

T3: DC-SIGN extracellular domain (human), Q9NNX6
T3 chain: T1 sequence (Q9NNX6 59-404 limits assumed)

B1: DC-SIGN extracellular domain, Q9NNX6 59-404 (domain or fragment)
chain: T1 sequence (Q9NNX6 59-404 limits assumed)

Tests used:
[1] = molecular target: T1, DC-SIGN ECD oriented surface; format: binding; conditions: for Kd: SPR direct interaction on DC-SIGN ECD oriented surface, 25 mM Tris pH 8, 150 mM NaCl, 4 mM CaCl2, 4% DMSO, read-out: KD app; for ß factor (valency-corrected enhancement factor): from SPR KDapp, compound 3.1 as monovalent reference
DC-SIGN ECD = system: DC-SIGN ECD; design: method as in PMID 25648900; conditions: SPR inhibition study (competition experiment); cited from earlier work
DC-SIGN ECD tetramer = molecular target: T2, DC-SIGN ECD tetramer; test: Isothermal titration calorimetry (ITC); format: binding; conditions: 25°C
Description: Thermodynamic parameters of multivalent binding as measured by isothermal titration calorimetry (ITC) were analyzed for compounds 3.2 and 3.6. Usually, ITC should provide, among other parameters, a “real” KD value; however, here we prefer to refer to a KDapp. Indeed, in these ITC experiments, we are not evaluating an affinity (a 1:1 unitary interaction, defined by KD) but rather an avidity phenomenon resulting from cumulative unitary bonds (each of whose individual contributions to the overall avidity cannot be deconvoluted). In addition, this avidity results from several multivalent modalities, a population of binding modes. Thus, the use of KDapp, instead of KD, emphasizes that the values determined here are the result of a complex phenomenon. The ITC binding analysis (Figure 3 and Table 2) is fully in agreement with the other biophysical techniques (see Table 2 for SPR and Figure 2C for FP of 3.6) with KDapp values equal to 58 ± 1 nM and 1.1 ± 0.2 μM for compounds 3.6 and 3.2, respectively. […] Increasing the local concentration close to the site is a major source of avidity generation. The ΔH difference is offset by a more unfavorable entropy for 3.6, which probably originates from the loss of degrees of freedom of construct extremities, six versus two, upon binding. Hydrophobic effect may also contribute, since the hydrophobic rod is shielded better from the solvent by the six units of ligand 1 in 3.6([35]) and exposing the hydrophobic parts and ordering the solvent around them is entropically costly. Combining the enthalpy and entropy effects, the ΔG for the hexavalent ligand improves by 10 kJ/mol. It is interesting to note that a stoichiometry of 1 for the complex with 3.6 is observed, supporting again the chelation mode. On the contrary, a stoichiometry n = 1.5 is observed for 3.2, with a KDapp in the μM range, which is compatible with a mixed chelation and clustering binding mode. […]
This graph is supplementary evidence of the multivalent binding, here chelate binding mode for 3.2, that occur over a DC-SIGN oriented surface.
3. Isothermal titration calorimetric analysis
ITC experiments were performed at 25°C using TA Instrument Nano Isothermal Titration Calorimeter Low volume (Nano ITC LV). Compound 3.6, 3.2 and DC-SIGN ECD were prepared in 25 mM Tris pH 8; 150 mM NaCl, 4 mM CaCl2, 4 % DMSO. Compounds (30 µM of 3.6 or 375 µM of 3.2) were stepwise injected (1.03 µL) to 190 µL of DC-SIGN ECD tetramer (respectively, 30 µM or 48.75 µM) in the cell. The blank titrations (compounds to buffer) were done for subtraction of dilution heat from the integrated data. […]
The free energy changes (∆G) and entropy (∆S) were calculated using equation (2): […]

[2] = molecular target: T3, DC-SIGN extracellular domain (human), …; test: AUC; sedimentation velocity; DC-SIGN tetramer 4 uM alone (same peak with 5 nM to 500 nM compound 3.6); monomers to tetramer; conditions: remark: other sources report otherwise

Molecule	Kd [1]	ß factor (valency-corrected enhancement factor) [1]	IC50 (DC-SIGN ECD) [µM]	other results
O=C(NCc1ccc(CO)cc1)C1CC(OCCn2cc(COCC(COCCOCCn3cc(-c4cc(OCCOCCO)c(-c5cn(CCOCCOCC(COCc6cn(CCOC7CC(C(=O)NCc8ccc(CO)cc8)C(C(=O)NCc8ccc(CO)cc8)CC7OC7OC(CO)C(O)C(O)C7O)nn6)(COCc6cn(CCOC7CC(C(=O)NCc8ccc(CO)cc8)C(C(=O)NCc8ccc(CO)cc8)CC7OC7OC(CO)C(O)C(O)C7O)nn6)COCc6cn(CCOC7CC(C(=O)NCc8ccc(CO)cc8)C(C(=O)NCc8ccc(CO)cc8)CC7OC7OC(CO)C(O)C(O)C7O)nn6)nn5)cc4OCCOCCO)nn3)(COCc3cn(CCOC4CC(C(=O)NCc5ccc(CO)cc5)C(C(=O)NCc5ccc(CO)cc5)CC4OC4OC(CO)C(O)C(O)C4O)nn3)COCc3cn(CCOC4CC(C(=O)NCc5ccc(CO)cc5)C(C(=O)NCc5ccc(CO)cc5)CC4OC4OC(CO)C(O)C(O)C4O)nn3)nn2)C(OC2OC(CO)C(O)C(O)C2O)CC1C(=O)NCc1ccc(CO)cc1 (stereo not shown) [Compound 1.6]	0.17 µM and 0.172 µM	38		
[N-]=[N+]=NCCOC1CC(C(=O)NCc2ccc(CO)cc2)C(C(=O)NCc2ccc(CO)cc2)CC1OC1OC(CO)C(O)C(O)C1O (stereo not shown) [Compound 1]			270	
O=C(NCc1ccc(CO)cc1)C1CC(OCCn2cc(COCC(COCCOCCn3cc(-c4cc(OCCOCCO)c(C#Cc5cc(OCCOCCO)c(-c6cn(CCOCCOCC(COCc7cn(CCOC8CC(C(=O)NCc9ccc(CO)cc9)C(C(=O)NCc9ccc(CO)cc9)CC8OC8OC(CO)C(O)C(O)C8O)nn7)(COCc7cn(CCOC8CC(C(=O)NCc9ccc(CO)cc9)C(C(=O)NCc9ccc(CO)cc9)CC8OC8OC(CO)C(O)C(O)C8O)nn7)COCc7cn(CCOC8CC(C(=O)NCc9ccc(CO)cc9)C(C(=O)NCc9ccc(CO)cc9)CC8OC8OC(CO)C(O)C(O)C8O)nn7)nn6)cc5OCCOCCO)cc4OCCOCCO)nn3)(COCc3cn(CCOC4CC(C(=O)NCc5ccc(CO)cc5)C(C(=O)NCc5ccc(CO)cc5)CC4OC4OC(CO)C(O)C(O)C4O)nn3)COCc3cn(CCOC4CC(C(=O)NCc5ccc(CO)cc5)C(C(=O)NCc5ccc(CO)cc5)CC4OC4OC(CO)C(O)C(O)C4O)nn3)nn2)C(OC2OC(CO)C(O)C(O)C2O)CC1C(=O)NCc1ccc(CO)cc1 (stereo not shown) [Compound 2.6]	0.14 ± 0.008 µM	47		
O=C(NCc1ccc(CO)cc1)C1CC(OCCn2cc(-c3cc(OCCOCCO)c(C#Cc4cc(OCCOCCO)c(C#Cc5cc(OCCOCCO)c(-c6cn(CCOC7CC(C(=O)NCc8ccc(CO)cc8)C(C(=O)NCc8ccc(CO)cc8)CC7OC7OC(CO)C(O)C(O)C7O)nn6)cc5OCCOCCO)cc4OCCOCCO)cc3OCCOCCO)nn2)C(OC2OC(CO)C(O)C(O)C2O)CC1C(=O)NCc1ccc(CO)cc1 (stereo not shown) [Compound 3.2]	2.4 µM and 2.44 µM	8	8	n (stoichiometry) (DC-SIGN ECD tetramer): 1.5 and 1.56 ± 0.04; ΔH (DC-SIGN ECD tetramer): –85.27 ± 4.48 kJ/mol; TΔS (DC-SIGN ECD tetramer; calculated): –54.4 kJ/mol; Kd (DC-SIGN ECD tetramer; one-site binding model, read-out: KDapp): 1.1 ± 0.2 µM
B1				stoichiometry N [2]: 4
